As usually defined, the GI50 is the concentration that inhibits growth by half.

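Values below derive from 48-hour exposures of cells grown in 96-well plates, with endpoints linearly interpolated between the two concentrations bracketing the appropriate inhibition level. GI50 is the concentration that inhibits growth by half.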 Active and inactive are the calls of the source. No stated cut-off is given here; in the data, active = GI50 up to about 1.1 µM and inactive = higher.

Here are results for three compounds from ChEMBL document CHEMBL1201862, “PubChem BioAssay data set” (2004).

Some test systems named below: 786-0; HCC 2998; HCT-116; HL-60; HOP-62; HT-29; LOX IMVI; M19-MEL; MCF7; MDA-MB-231; MDA-N; NCI-H23; NCI-H460; NCI-H522; NCI/ADR-RES; PC-3; RPMI-8226; SK-MEL-2; SNB-75; T47D.
Holding throughout (assay): DTP human tumour cell line panel, 48 h

Take `CC(=O)CC[N+](C)(C)C`: the GI50 was 23.6 µM (inactive) in the assay with 786-0; 52.5 µM (inactive) with HCC 2998; 25.2 µM (inactive) in the assay with HCT-116; 4.42 µM (inactive) in the assay with HL-60; > 100 µM (inactive) in the assay on HOP-62; 32.7 µM (inactive) in the assay on HT-29. The GI50 with LOX IMVI was 14.1 µM (inactive); with M19-MEL, 23.3 µM (inactive); in the assay with MCF7 it was 30.3 µM (inactive); with MDA-MB-231, 21.3 µM (inactive); in the assay on MDA-N, 40.7 µM (inactive); in the assay on NCI-H23, 29.2 µM (inactive). Also, the GI50 was 65.8 µM (inactive) in the assay on NCI-H460; 0.929 µM (active) with NCI-H522; 38.9 µM (inactive) in the assay with NCI/ADR-RES; 76.9 µM (inactive) in the assay on PC-3; 5.94 µM (inactive) in the assay on RPMI-8226; 36.4 µM (inactive) in the assay on SK-MEL-2. The GI50 is 29 µM (inactive) in the assay with SNB-75 and 29.2 µM (inactive) with T47D.

Take `O=c1oc2ccccc2c(O)c1C(C/C(CCN1CCCC1)=N/O)c1ccccc1` (stereo not given): the GI50 in the assay on 786-0 was > 100 µM (inactive); in the assay with HCC 2998 it was > 100 µM (inactive); in the assay on HCT-116 it was > 100 µM (inactive); in the assay on HL-60, > 31.6 µM (inactive); in the assay with HOP-62, > 100 µM (inactive); in the assay on HT-29 it was > 100 µM (inactive). For the same compound, the GI50 in the assay on LOX IMVI, in the assay with M19-MEL, in the assay with MCF7, in the assay with MDA-MB-231, with MDA-N and with NCI-H23 was > 100 µM (inactive) throughout. For the same compound, the GI50 in the assay with NCI-H460 is > 100 µM (inactive); in the assay with NCI-H522, > 100 µM (inactive); with NCI/ADR-RES, > 100 µM (inactive); in the assay on PC-3 it was > 100 µM (inactive); in the assay on RPMI-8226 it was > 94.8 µM (inactive); in the assay with SK-MEL-2 it was > 100 µM (inactive). The GI50 with SNB-75 was > 91.2 µM (inactive); in the assay with T47D, 7.87 µM (inactive).

`CC(C(=O)O)/C(=C\c1ccc2c(c1)OCO2)C(=O)O` (stereo not given): the GI50 was > 100 µM (inactive) with 786-0; > 100 µM (inactive) in the assay with HCC 2998; > 100 µM (inactive) with HCT-116; 0.0226 µM (active) in the assay with HL-60; > 100 µM (inactive) in the assay on HOP-62; > 61.5 µM (inactive) in the assay on HT-29. The GI50 in the assay on LOX IMVI, with M19-MEL, in the assay with MCF7, in the assay on MDA-MB-231, in the assay with MDA-N and in the assay on NCI-H23 was > 100 µM (inactive) throughout. The GI50 with NCI-H460, with NCI-H522, in the assay on NCI/ADR-RES, with PC-3, in the assay with RPMI-8226 and in the assay with SK-MEL-2 was > 100 µM (inactive) throughout. The GI50 in the assay on SNB-75 and with T47D was > 100 µM (inactive) in each case.
